Patent US8288371B2, “Ortho pyrrolidine, benzyl-substituted heterocycle CCR1 antagonists for autoimmune diseases and inflammation” (Pharmacopeia, LLC, priority 2007, dated 2012)

Target: T1, human CCR1 (Homo sapiens, UniProt P32246)
T1 sequence (P32246 1-355): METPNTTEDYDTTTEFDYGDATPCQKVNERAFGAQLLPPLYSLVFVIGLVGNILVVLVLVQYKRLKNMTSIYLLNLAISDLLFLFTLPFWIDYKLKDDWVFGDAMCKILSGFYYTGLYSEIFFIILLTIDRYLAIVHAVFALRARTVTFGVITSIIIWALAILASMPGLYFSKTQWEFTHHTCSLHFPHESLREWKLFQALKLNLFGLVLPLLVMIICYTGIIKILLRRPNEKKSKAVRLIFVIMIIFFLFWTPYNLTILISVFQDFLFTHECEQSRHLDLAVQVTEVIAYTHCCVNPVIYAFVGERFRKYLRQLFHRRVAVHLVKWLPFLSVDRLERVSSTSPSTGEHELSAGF
Assay: CCR1 binding protocol (SPA, [125I]-MIP-1α displacement)
Conditions: cell membrane expressing human CCR1, 0.1 nM [125I]-MIP-1α, 4 hours at ambient temperature; read-out: Relative potency (IC50)
How it was run: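 Displacement of 0.1 nM [125I]-MIP-1α (final) from membranes expressing human CCR1 was measured by scintillation proximity after 4 h at ambient temperature. Conditions: pH 7.4 Tris buffer with 0.1% BSA and MnCl, and 0.5 μg membrane per well. Compounds were tested as a 10-step ½-log series from a 10 mM DMSO stock to derive IC50.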

IC50	Structure (SMILES)
< 50 nM	CC[C@H](NC(=O)N1CCC[C@@H]1c1nnc(C)n1Cc1ccc(Br)cc1)c1ccc(C(F)(F)F)cc1 [Compound 578]
50 to 500 nM	CCc1nnc([C@H]2CCCN2C(=O)Nc2c(C)noc2C)n1Cc1ccc(Cl)cc1 [Compound 582]
< 50 nM	CCc1nnc([C@H]2CCCN2C(=O)Nc2ccc(C(F)(F)F)nc2C)n1Cc1ccc(Cl)cc1 [Compound 584]
< 50 nM	CC[C@H](NC(=O)N1CCC[C@@H]1c1nnc(C)n1Cc1ccc(Br)cc1)c1cc2ccccc2o1 [Compound 585]
< 50 nM	CC[C@H](NC(=O)N1CCC[C@@H]1c1nnc(C)n1Cc1ccc(F)cc1)c1cc2ccccc2o1 [Compound 586]
50 to 500 nM	Cc1onc(NC(=O)N2CCC[C@@H]2c2nnc(C)n2Cc2ccc(Cl)cc2)c1F [Compound 590]
50 to 500 nM	Cc1nnc([C@H]2CCCN2C(=O)Nc2cc(-c3ccc(Cl)cc3)nn2C)n1Cc1ccc(Cl)cc1 [Compound 595]
500 to 5000 nM	Cc1nc(NC(=O)N2CCC[C@@H]2c2nnc(C)n2Cc2ccc(Cl)cc2)sc1C [Compound 596]
500 to 5000 nM	Cc1sc(NC(=O)N2CCC[C@@H]2c2nnc(C)n2Cc2ccc(Cl)cc2)nc1-c1ccccc1 [Compound 597]
500 to 5000 nM	Cc1nnc([C@H]2CCCN2C(=O)Nc2ccc3[nH]ccc3c2)n1Cc1ccc(Cl)cc1 [Compound 603]
< 50 nM	Cc1nc(C(F)(F)F)ccc1NC(=S)N1CCC[C@@H]1c1nnc(C)n1Cc1ccc(Cl)cc1 [Compound 607]
< 50 nM	Cc1nc(C(F)(F)F)ccc1CC(=O)N1CCC[C@@H]1c1nnc(C)n1Cc1ccc(Cl)cc1 [Compound 610]
< 50 nM	Cc1noc(C(F)(F)F)c1NC(=O)N1CCC[C@@H]1c1nnc(C)n1Cc1ccc(Cl)cc1 [Compound 616]
50 to 500 nM	Cc1nnc([C@H]2CCCN2C(=O)Nc2cccc(-c3ccn(C)n3)c2)n1Cc1ccc(Cl)cc1 [Compound 621]
< 50 nM	Cc1nc(C(F)(F)F)ccc1[C@H](C)NC(=O)N1CCC[C@@H]1c1nnc(C)n1Cc1ccc(Cl)cc1 [Compound 624]
< 50 nM	CC[C@H](NC(=O)N1CCC[C@@H]1c1nnc(C)n1Cc1ccc(Cl)cc1)c1ccc(C)nc1C [Compound 625]
50 to 500 nM	Cc1ccc([C@H](C)NC(=O)N2CCC[C@@H]2c2nnc(C)n2Cc2ccc(Cl)cc2)c(C)n1 [Compound 626]
< 50 nM	CC[C@H](NC(=O)N1CCC[C@@H]1c1nnc(C)n1Cc1ccc(Cl)cc1)c1ccc(C(F)(F)F)nc1C [Compound 627]

Continued, compound first:

Structure (SMILES)	IC50
CC[C@H](NC(=O)N1CCC[C@@H]1c1nnc(C)n1Cc1ccc(F)cc1)c1ccc(C(F)(F)F)cc1 [Compound 577]	< 50 nM
Cc1nnc([C@H]2CCCN2c2c(Nc3ccc(F)cc3F)c(=O)c2=O)n1Cc1ccc(Cl)cc1 [Compound 579]	500 to 5000 nM
Cc1nc(C(F)(F)F)ccc1NC(=O)N1CC(F)C[C@@H]1c1nnc(C)n1Cc1ccc(Cl)cc1 (stereo partly drawn) [Compound 580]	< 50 nM
Cc1cc(C#N)ccc1NC(=O)N1CC(F)C[C@@H]1c1nnc(C)n1Cc1ccc(Cl)cc1 (stereo partly drawn) [Compound 581]	50 to 500 nM
CCc1nnc([C@H]2CCCN2C(=O)Nc2ccc(Cl)cc2F)n1Cc1ccc(Cl)cc1 [Compound 583]	< 50 nM
Cc1cc(C)c(S(=O)(=O)N(C)C)cc1NC(=O)N1CCC[C@@H]1c1nnc(C)n1Cc1ccc(F)cc1 [Compound 587]	< 50 nM
CC[C@H](Nc1c(N2CCC[C@@H]2c2nnc(C)n2Cc2ccc(Cl)cc2)c(=O)c1=O)c1cc2ccccc2o1 [Compound 588]	50 to 500 nM
CC[C@H](Nc1c(N2CCC[C@@H]2c2nnc(C)n2Cc2ccc(Cl)cc2)c(=O)c1=O)c1ccc(C(F)(F)F)cc1 [Compound 589]	50 to 500 nM
Cc1nnc([C@H]2CCCN2C(=O)NCC2CN(S(C)(=O)=O)C2)n1Cc1ccc(Cl)cc1 [Compound 591]	500 to 5000 nM
CC(=O)N1CCC(CNC(=O)N2CCC[C@@H]2c2nnc(C)n2Cc2ccc(Cl)cc2)C1 (stereo partly drawn) [Compound 592]	50 to 500 nM
Cc1nnc([C@H]2CCCN2C(=O)NCC2CCN(S(C)(=O)=O)C2)n1Cc1ccc(Cl)cc1 (stereo partly drawn) [Compound 593]	50 to 500 nM
Cc1nnc([C@H]2CCCN2C(=O)NCC2CCOC2)n1Cc1ccc(Cl)cc1 (stereo partly drawn) [Compound 594]	500 to 5000 nM
CC(=O)N1CCC(CNC(=O)N2CCC[C@@H]2c2nnc(C)n2Cc2ccc(Cl)cc2)CC1 [Compound 598]	50 to 500 nM
CC(=O)N1CCCC(CNC(=O)N2CCC[C@@H]2c2nnc(C)n2Cc2ccc(Cl)cc2)C1 (stereo partly drawn) [Compound 599]	50 to 500 nM
Cc1nnc([C@H]2CCCN2C(=O)NCC2CCN(S(C)(=O)=O)CC2)n1Cc1ccc(Cl)cc1 [Compound 600]	50 to 500 nM
Cc1nnc([C@H]2CCCN2C(=O)NCC2CCCN(S(C)(=O)=O)C2)n1Cc1ccc(Cl)cc1 (stereo partly drawn) [Compound 601]	50 to 500 nM
Cc1nnc([C@H]2CCCN2C(=O)NCCC2CCCCO2)n1Cc1ccc(Cl)cc1 (stereo partly drawn) [Compound 602]	50 to 500 nM
CC(=O)N1CCC(NC(=O)N2CCC[C@@H]2c2nnc(C)n2Cc2ccc(Cl)cc2)c2ccccc21 (stereo partly drawn) [Compound 604]	< 50 nM
Cc1nc(C(F)(F)F)ccc1N/C(=N\O)N1CCC[C@@H]1c1nnc(C)n1Cc1ccc(Cl)cc1 [Compound 605]	50 to 500 nM
Cc1nnc([C@H]2CCCN2C(=S)Nc2ccc(Cl)cc2F)n1Cc1ccc(Cl)cc1 [Compound 606]	< 50 nM
Cc1nnc([C@H]2CCCN2C(=S)Nc2ccc(C(F)(F)F)cc2)n1Cc1ccc(Cl)cc1 [Compound 608]	< 50 nM

Structure (SMILES)	IC50
Cc1cc(C)c(S(=O)(=O)N(C)C)cc1Nc1c(N2CCC[C@@H]2c2nnc(C)n2Cc2ccc(Cl)cc2)c(=O)c1=O [Compound 609]	50 to 500 nM
Cc1noc(C)c1N/C(=C\[N+](=O)[O-])N1CCC[C@@H]1c1nnc(C)n1Cc1ccc(Cl)cc1 [Compound 611]	< 50 nM
Cc1nnc([C@H]2CCCN2/C(=C/[N+](=O)[O-])NCc2ccc(Cl)cc2Cl)n1Cc1ccc(Cl)cc1 [Compound 612]	50 to 500 nM
Cc1nnc([C@H]2CCCN2/C(=C/[N+](=O)[O-])Nc2ccc(Cl)cc2F)n1Cc1ccc(Cl)cc1 [Compound 613]	50 to 500 nM
CC[C@H](N/C(=C/[N+](=O)[O-])N1CCC[C@@H]1c1nnc(C)n1Cc1ccc(Cl)cc1)c1ccc(C(F)(F)F)nc1 [Compound 614]	< 50 nM
Cc1onc(C(F)(F)F)c1NC(=O)N1CCC[C@@H]1c1nnc(C)n1Cc1ccc(Cl)cc1 [Compound 615]	< 50 nM
Cc1nc(C(F)(F)F)ccc1CC(=O)N1CCC[C@@H]1c1ncnn1Cc1ccc(Cl)cc1 [Compound 617]	50 to 500 nM
Cc1nc(C(F)(F)F)ccc1CC(=O)N1CCC[C@@H]1c1nncn1Cc1ccc(Cl)cc1 [Compound 618]	< 50 nM
Cc1nc(C(F)(F)F)ccc1CC(=O)N1C[C@@H](O)C[C@@H]1c1nnc(C)n1Cc1ccc(Cl)cc1 [Compound 619]	< 50 nM
Cc1nnc([C@H]2CCCN2C(=O)Nc2cccc(-c3ccnn3C)c2)n1Cc1ccc(Cl)cc1 [Compound 620]	500 to 5000 nM
Cc1nnc([C@H]2CCCN2C(=O)NCc2ccccc2-c2cc(C(F)(F)F)nn2C)n1Cc1ccc(Cl)cc1 [Compound 622]	< 50 nM
Cc1nnc([C@H]2CCCN2C(=O)NCC2(c3cccs3)CCOCC2)n1Cc1ccc(Cl)cc1 [Compound 623]	500 to 5000 nM
O=C(Nc1ccc(Cl)cc1F)N1CCC[C@@H]1c1nnsc1Cc1ccc(Cl)cc1 [Compound 628]	50 to 500 nM
Cc1noc(C)c1CC(=O)N1CCC[C@@H]1c1nncn1Cc1ccc(Cl)cc1 [Compound 629]	50 to 500 nM
Cc1noc(C)c1CC(=O)N1C[C@@H](O)C[C@@H]1c1nnc(C)n1Cc1ccc(Cl)cc1 [Compound 630]	50 to 500 nM
Cc1noc(C)c1CC(=O)N1CCC[C@@H]1c1ncnn1Cc1ccc(Cl)cc1 [Compound 631]	500 to 5000 nM
Cc1nc(C(F)(F)F)ccc1NC(=O)N1CCC[C@@H]1c1nnsc1Cc1ccc(Cl)cc1 [Compound 632]	< 50 nM
Cc1nnc([C@H]2CCCN2C(=O)Nc2ccc(C(F)(F)F)nc2)n1Cc1ccc(Cl)cc1 [Compound 633]	50 to 500 nM
CCc1cc(Cn2c(C)nnc2[C@H]2CCCN2C(=O)Nc2ccc(C(F)(F)F)nc2C)ccc1Cl [Compound 634]	< 50 nM
CCc1cc(Cn2c(C)nnc2[C@H]2CCCN2C(=O)Nc2ccc(Cl)cc2F)ccc1Cl [Compound 635]	50 to 500 nM
Cc1nc(C(F)(F)F)ccc1NC(=O)N1CC=C[C@@H]1c1nnc(C)n1Cc1ccc(Cl)cc1 [Compound 636]	< 50 nM
